Reference: patent US11180462B2, “Microbiocidal oxadiazole derivatives” (SYNGENTA PARTICIPATIONS AG, priority 2015, dated 2021)

Experiments:
[1] = tested on: Puccinia recondita f. Sp. Tritici; experiment: Fungicidal activity against Puccinia recondita f. sp. tritici / wheat / leaf disc preventative (brown rust); type: in vivo; settings: foliar, 200 ppm in the applied formulation, wheat leaf segments, preventative, compared to untreated control leaf disks, read-out: disease control
Procedure, shortened: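 Preventative leaf-segment test, wheat cv. Kanzler on water agar. Spray compound at 200 ppm, inoculate with spores 1 day later; 19° C., 75% rh, 12/12 h light. Read-out: % disease control vs untreated, 7 to 9 days after application.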

Phakopsora Pachyrhizi = experiment: Fungicidal activity against Phakopsora pachyrhizi / soybean / leaf disc preventative (Asian soybean rust); type: in vivo; settings: foliar, 200 ppm in the applied formulation, soybean leaf disks, compared to untreated control leaf disks, read-out: disease control
Procedure, shortened: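 Preventative soybean leaf-disc test: discs on water agar sprayed with diluted formulated compound, inoculated one day later with spores on the lower surface. Held 24–36 h dark at 20°C, 75% rh, then 12 h light/day; percent disease control versus untreated discs scored 12–14 days after application.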

[2] = tested on: Puccinia recondita f. Sp. Tritici; experiment: Fungicidal activity against Puccinia recondita f. sp. tritici / wheat / leaf disc curative (brown rust); type: in vivo; settings: foliar, 24 h, 200 ppm in the applied formulation, wheat leaf segments, curative (applied 1 day after inoculation), compared to untreated control leaf disks, read-out: disease control
Procedure, shortened: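 % disease control vs untreated, scored 6–8 d post-application. Wheat cv. Kanzler segments, spore-inoculated, dark 19° C/75% RH; formulated cpd applied 1 d post-inoc; then 19° C, 75% RH, 12 h L/12 h D.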

[3] = tested on: Glomerella lagenarium (Colletotrichum lagenarium); experiment: Fungicidal activity against Glomerella lagenarium (Colletotrichum lagenarium) liquid culture / cucumber / preventative (anthracnose); type: cell-based; settings: Colletotrichum orbiculare; 20 ppm in the applied formulation; liquid culture (PDB), growth inhibition measured photometrically after 3 to 4 days; compared to untreated control; read-out: disease control
Procedure, shortened: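 Photometric read-out of fungal growth after 2–7 days, expressed as percent antifungal activity versus untreated check. Cryo-stored conidia in PDB; compound at 20 ppm; dark, 24 °C, 96% RH.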

C#CCN(Cc1ccc(-c2noc(C(F)(F)F)n2)cc1)C(=O)C1CSC1 [Compound 1.172, N-prop-2-ynyl-N-[[4-[5-(trifluoromethyl)-1,2,4-oxadiazol-3-yl]phenyl]methyl]-thietane-3-carboxamide]
≥ 80%: pest or weed control at 200 ppm [1] | pest or weed control at 200 ppm (Phakopsora Pachyrhizi) | pest or weed control at 200 ppm [2]

C#CCN(Cc1ccc(-c2noc(C(F)(F)F)n2)cc1)C(=O)C(C)OC (stereo not drawn) [Compound 1.200, 2-methoxy-N-prop-2-ynyl-N-[[4-[5-(trifluoromethyl)-1,2,4-oxadiazol-3-yl]phenyl]methyl]-propanamide]
≥ 80%: pest or weed control at 200 ppm [1] | pest or weed control at 200 ppm (Phakopsora Pachyrhizi) | pest or weed control at 200 ppm [2]

CCOCC(=O)N(Cc1ccc(-c2noc(C(F)(F)F)n2)cc1)C(C)CC (stereo not drawn) [Compound 1.383, 2-ethoxy-N-sec-butyl-N-[[4-[5-(trifluoromethyl)-1,2,4-oxadiazol-3-yl]phenyl]methyl]-acetamide]
≥ 80%: pest or weed control at 200 ppm [1] | pest or weed control at 200 ppm (Phakopsora Pachyrhizi) | pest or weed control at 200 ppm [2]

CCCCON(Cc1ccc(-c2noc(C(F)(F)F)n2)cc1)C(=O)C(C)CC (stereo not drawn) [Compound 1.640, N-butoxy-2-methyl-N-[[4-[5-(trifluoromethyl)-1,2,4-oxadiazol-3-yl]phenyl]methyl]-butanamide]
≥ 80%: pest or weed control at 200 ppm [1] | pest or weed control at 200 ppm (Phakopsora Pachyrhizi) | pest or weed control at 200 ppm [2]

CCCN(Cc1ccc(-c2noc(C(F)(F)F)n2)cc1)C(=O)CC(F)(F)F [Compound 1.667, 3,3,3-trifluoroN-propyl-N-[[4-[5-(trifluoromethyl)-1,2,4-oxadiazol-3-yl]phenyl]methyl]-propanamide]
≥ 80%: inhibition of growth at 20 ppm [3] | pest or weed control at 200 ppm (Phakopsora Pachyrhizi) | pest or weed control at 200 ppm [2]

COCCC(=O)N(Cc1ccc(-c2noc(C(F)(F)F)n2)cc1)CC(F)(F)F [Compound 1.693, 3-methoxy-N-(2,2,2-trifluoroethyl)-N-[[4-[5-(trifluoromethyl)-1,2,4-oxadiazol-3-yl]phenyl]methyl]-propanamide]
≥ 80%: inhibition of growth at 20 ppm [3] | pest or weed control at 200 ppm (Phakopsora Pachyrhizi) | pest or weed control at 200 ppm [2]

O=C(C1CCOC1)N(CCO)Cc1ccc(-c2noc(C(F)(F)F)n2)cc1 (stereo not drawn) [Compound 1.711, N-(2-hydroxyethyl)-N-[[4-[5-(trifluoromethyl)-1,2,4-oxadiazol-3-yl]phenyl]methyl]-tetrahydrofuran-3-carboxamide]
≥ 80%: pest or weed control at 200 ppm [1] | pest or weed control at 200 ppm (Phakopsora Pachyrhizi) | pest or weed control at 200 ppm [2]

O=C(OCCN(Cc1ccc(-c2noc(C(F)(F)F)n2)cc1)C(=O)C1CCOC1)C1CCOC1 (stereo not drawn) [Compound 1.712, 2-(tetrahydrofuran-3-carbonyl-[[4-[5-(trifluoromethyl)-1,2,4-oxadiazol-3-yl]phenyl]methyl]-amino]ethyl tetrahydrofuran-3-carboxylate]
≥ 80%: pest or weed control at 200 ppm [1] | pest or weed control at 200 ppm (Phakopsora Pachyrhizi) | pest or weed control at 200 ppm [2]

COCCOC(=O)N(Cc1ccc(-c2noc(C(F)(F)F)n2)cc1)OC [Compound 2.2, 2-methoxyethyl N-methoxy-N-[[4-[5-(trifluoromethyl)-1,2,4-oxadiazol-3-yl]phenyl]methyl]-carbamate]
≥ 80%: inhibition of growth at 20 ppm [3] | pest or weed control at 200 ppm (Phakopsora Pachyrhizi) | pest or weed control at 200 ppm [2]

COC(=O)N(Cc1ccc(-c2noc(C(F)(F)F)n2)cc1)OC [Compound 2.3, methyl N-methoxy-N-[[4-[5-(trifluoromethyl)-1,2,4-oxadiazol-3-yl]phenyl]methyl]carbamate]
≥ 80%: inhibition of growth at 20 ppm [3] | pest or weed control at 200 ppm (Phakopsora Pachyrhizi) | pest or weed control at 200 ppm [2]

CON(Cc1ccc(-c2noc(C(F)(F)F)n2)cc1)C(=O)N1CCOCC1 [Compound 3.1, N-methoxy-N-[[4-[5-(trifluoromethyl)-1,2,4-oxadiazol-3-yl]phenyl]methyl]-morpholine-4-carboxamide]
≥ 80%: inhibition of growth at 20 ppm [3] | pest or weed control at 200 ppm (Phakopsora Pachyrhizi) | pest or weed control at 200 ppm [2]
